{
  "source": "patent EP0509752A2",
  "about": "“Ophthalmic compositions comprising combinations of a carbonic anhydrase inhibitor and a beta-adrenergic antagonist” (MERCK & CO. INC., priority 1991, dated 1992)",
  "tested_on": "Patients with either ocular hypertension or primary open angle glaucoma",
  "test": "Study of Compound I in combination with timolol: 12 hour diurnal IOP curve (Goldmann applanation tonometer)",
  "assay_type": "in vivo",
  "conditions": "2% Compound I, 1 drop to each eye every 12 hours for seven days, ten minutes after timolol 0.5% bid, worse eye analysis, preliminary IOP data",
  "description": "Study of (S,S)-(-)-5,6-dihydro-4-ethylamino-6-methyl-4H-thieno[2,3b]thiopyran-2-sulfonamide-7,7-dioxide (I) in combination with Timolol\nPatients aged 40 or over, with either ocular hypertension or primary open angle glaucoma with an intraocular pressure (IOP) in one or both eyes of 22 mmHg or more at one time point each day while receiving timolol 0.5% twice a day (bid) alone were admitted to the study. Patients had been on timolol 0.5% bid, either alone or in combination for at least three weeks prior to study entry and had been on timolol 0.5% bid as their sole glaucoma therapy for at least two weeks prior to study admission.\nSecondary glaucoma was an exclusion as was a history of glaucoma surgery or laser trabeculoplasty/gonioplasty. Patients for whom timolol was contraindicated by the datasheet were excluded and also excluded were those on a concurrent β-blocker, carbonic anhydrase inhibitor, or clonidine. […]\n• 1. […] Patients were admitted for a 12 hour diurnal curve (i.e., IOP recorded at 08.00, 09.00, 10.00, 12.00, 14.00, 16.00, 18.00, 20.00 hours approximately, the 08.00 recording was immediately prior to instillation of the drops). All pressures were measured by the same observer using the same Goldmann applanation tonometer. • 3. […] On Day 2, the IOP of each patient was measured at 8 am and 9 am, and a 12 hour diurnal curve was recorded on Day 8. preliminary IOP data follow : […]",
  "data": [
    {"smiles": "CCN[C@H]1C[C@H](C)S(=O)(=O)c2sc(S(N)(=O)=O)cc21", "note": "[Compound I, (S,S)-(-)-5,6-dihydro-4-ethylamino-6-methyl-4H-thieno[2,3b]thiopyran-2-sulfonamide-7,7-dioxide]", "values": [
      {"measurement": "effect over the effect of timolol alone (percent change in IOP on Day 8 from prestudy)", "value": "13%-21%"}
    ]}
  ]
}
